Measured values: PMC6920566 (Journal of molecular biology, 2019)

System: MDA-MB-231 cells
Assay: Fluorescence microscopy of A488-pHLIP cellular interaction
Format: cell-based, human

H2N-GCEQNPIYWARYADWLF-TTPLLLLDLALLVDADEGTG-CONH2 [A488-pHLIP]
A488 fluorescence of cells (microscopy) (pH 5.0, absence of divalent cations): large increase in A488 fluorescence intensity
A488 fluorescence of cells (microscopy) (pH 7.4, 1.8 mM Ca2+): significant increase in A488 fluorescence intensity
A488 fluorescence of cells (microscopy) (pH 7.4, absence of divalent cations, washed before imaging): No significant fluorescence
